The values that follow come from patent US20120004235A1, “METHODS TO TREAT CANCER” (Rutgers, The State University of New Jersey, priority 2009, published 2012).

The test system of data set [1] is HT29 Human Colon Carcinoma. Nature of the data set: Human tumor cell CFU assay (Test B). In kind it is cell-based. The settings on record: colony formation, continuous exposure 7-9 days; for IC50: read-out: IC50 Values (95% Lower and Upper Confidence Intervals); for IC90: read-out: IC90 Values (95% Lower and Upper Confidence Intervals). As for the experimental part: (§1) For human tumor cell CFU assays, the cell lines which grow as monolayers, MDA-MB-231, HCT116, HT29, NCI-H460, KB3-1 and KBV-1 were grown in RPMI medium (Invitrogen/Gibco, Grand Island, N.Y.) supplemented with 5% fetal bovine serum (Invitrogen/Gibco, Grand Island, NY). The RPMI-8226 cell line grows in suspension.
(§2) For experiments, human tumor cells (1 103) were plated in 6-well plates in medium supplemented with 5% or 10% fetal bovine serum. The compounds were tested in concentrations over the range from 0.01 to 100 nanomolar in half-log intervals covering […] along with untreated control wells. In later experiments some cases the concentration ranges were refined to focus on the region of interest in the response curves. Each compound concentration was tested in duplicate wells. Cultures were exposed to the compounds continuously for 7-9 days at 37° C. in a humidified atmosphere of 5% carbon dioxide balance air. Each experiment was performed three independent times. Colonies were defined as clusters containing 30 or more cells.
(§3) For the monolayer cultures, colonies were visualized by staining with a preformulated crystal violet solution (Fisher Cat #291-472) which contained 0.41% crystal violet, 12% ethanol balance deionized water. To visualize the colonies, the medium was removed by aspiration; the monolayer was rinsed once with phosphate buffered saline which was removed by aspiration. Three drops of crystal violet solution was added to each well and the 6-well plate was rotated so that the crystal violet solution covered the surface area of each well. After 5 minutes exposure time, the wells were rinsed twice with phosphate buffered saline and the colonies were visible.
(§4) The values were expressed as the mean values with lower and upper 95% confidence intervals in nanomolar concentrations.

Data set [2] deals with MDA-MB-231 Human Breast Carcinoma. Nature of the data set: Human tumor cell CFU assay (Test B). Format: cell-based. The settings on record: colony formation, continuous exposure 7-9 days; for IC50: read-out: IC50 Values (95% Lower and Upper Confidence Intervals); for IC90: read-out: IC90 Values (95% Lower and Upper Confidence Intervals). As for the experimental part: as §1, §2, §3, §4

Data set [3] relates to KBH5.0 BCRP+ KB3-1 Subline. Nature of the data set: Human tumor cell CFU assay (Test B). Format: cell-based. The settings on record: colony formation, continuous exposure 7-9 days; for IC50: read-out: IC50 Values (95% Lower and Upper Confidence Intervals). On the procedure: as §1, §2, §3, §4
The test system of data set [4] is HCT116 Human Colon Carcinoma. Nature of the data set: Human tumor cell CFU assay (Test B). In kind it is cell-based. The following applies: colony formation, continuous exposure 7-9 days; for IC50: read-out: IC50 Values (95% Lower and Upper Confidence Intervals); for IC90: read-out: IC90 Values (95% Lower and Upper Confidence Intervals). On the procedure:
as §1, §2, §3, §4

The test system of data set [5] is KB-V1 MDR1+ KB3-1 Subline. Nature of the data set: Human tumor cell CFU assay (Test B). Format: cell-based. The settings on record: colony formation, continuous exposure 7-9 days. As for the experimental part: as §1, §2, §3, §4
The subject of data set [6] is NCI-H460 Human Non-small Cell Lung Carcinoma. Nature of the data set: Human tumor cell CFU assay (Test B). In kind it is cell-based. The settings on record: colony formation, continuous exposure 7-9 days; for IC50: read-out: IC50 Values (95% Lower and Upper Confidence Intervals); for IC90: read-out: IC90 Values (95% Lower and Upper Confidence Intervals). As for the experimental part: as §1, §2, §3, §4

For data set [7], the system named is KB3-1 HeLa Human Cervical Carcinoma. Nature of the data set: Human tumor cell CFU assay (Test B). In kind it is cell-based. The settings on record: colony formation, continuous exposure 7-9 days; for IC90: read-out: IC90 Values (95% Lower and Upper Confidence Intervals). On the procedure: as §1, §2, §3, §4
Data set [8] deals with RPMI-8226 Human Multiple Myeloma. Nature of the data set: Human tumor cell CFU assay (Test B). The settings on record: colony formation in agar, continuous exposure 7-9 days. Format: cell-based. As for the experimental part: as §1
For human tumor cell CFU assays, RPMI-8226 cells were grown in 0.35% agar in DMEM-F12 medium supplemented with 10% fetal bovine serum over a base layer of 0.5% agar in DMEM-F12 medium supplemented with 10% fetal bovine serum
as §2, §4

For data set [9], the system named is MDA-MB-231 human breast tumor xenograft. The following applies: qd×5.
The test system of data set [10] is NCI-H460 human non-small cell lung carcinoma xenograft. Nature of the data set: Compound 2 citrate salt vs. NCI-H460 xenograft model (pemetrexed, topotecan, cisplatin controls). The following applies: qd×5.

Molecules are shown by their SMILES. Where two headings read alike, the source gives them in different places. Bounds are passed on as bounds.

Regarding `COc1cc2c(=O)n(CCN(C)C)c3c4cc5c(cc4ncc3c2cc1OC)OCO5` [Compound 1], the IC50 – broadly, the point on the concentration scale where inhibition reaches its midpoint – came to 1.3 nM in data set [1] (Homo sapiens, HT-29); 0.3 nM in data set [2] (Homo sapiens, MDA-MB-231); 1.8 nM in [3] (Homo sapiens, KB 3-1); 1.7 nM in data set [4] (Homo sapiens, HCT-116); 1.8 nM in data set [5] (Homo sapiens); 2.3 nM in [6] (Homo sapiens, NCI-H460). Moreover, the IC50 in data set [7] (Homo sapiens) was determined as 1.5 nM; in data set [8] (Homo sapiens, RPMI-8226), 1.8 nM. Moreover, the IC90 (usually the point of the concentration-response curve where the effect stands at 90%) in data set [1] (Homo sapiens, HT-29) was 4.3 nM; in data set [2] (Homo sapiens, MDA-MB-231) it was 1.2 nM; in [3] (Homo sapiens, KB 3-1), 5.8 nM; in [4] (Homo sapiens, HCT-116), 5.6 nM; in data set [5] (Homo sapiens), 5.7 nM; in data set [6] (Homo sapiens, NCI-H460), 6.2 nM. Moreover, the IC90 in [7] (Homo sapiens) turned out to be 5.2 nM; in data set [8] (Homo sapiens, RPMI-8226) it was 5.8 nM.
In the case of `COc1cc2c(C(=O)NCC(C)(C)N(C)C)cc3c4cc5c(cc4ncc3c2cc1OC)OCO5` [Compound 3], the IC50 in data set [1] (Homo sapiens, HT-29) is 0.5 nM; in data set [2] (Homo sapiens, MDA-MB-231) it was 0.5 nM; in data set [3] (Homo sapiens, KB 3-1), 0.6 nM; in [4] (Homo sapiens, HCT-116) it was 0.4 nM; in data set [5] (Homo sapiens) it was 0.6 nM; in data set [6] (Homo sapiens, NCI-H460), 0.9 nM. Also, the IC50 in data set [7] (Homo sapiens) was 0.8 nM; in [8] (Homo sapiens, RPMI-8226) it was 0.7 nM. Further, the IC90 in data set [1] (Homo sapiens, HT-29) came to 1.5 nM; in data set [2] (Homo sapiens, MDA-MB-231), 0.9 nM; in data set [3] (Homo sapiens, KB 3-1), 2.3 nM; in [4] (Homo sapiens, HCT-116), 1.7 nM; in data set [5] (Homo sapiens), 2.8 nM; in [6] (Homo sapiens, NCI-H460), 3 nM. Further, the IC90 in [7] (Homo sapiens) was determined as 2.8 nM; in data set [8] (Homo sapiens, RPMI-8226), 2.5 nM.
On to `COc1cc2c(=O)n(CCN(C)C(C)C)c3c4cc5c(cc4ncc3c2cc1OC)OCO5` [Compound 4], for which the IC50 in [1] (Homo sapiens, HT-29) was found to be 0.5 nM; in [2] (Homo sapiens, MDA-MB-231) it was 0.3 nM; in data set [3] (Homo sapiens, KB 3-1) it was 1.3 nM; in [4] (Homo sapiens, HCT-116), 1.2 nM; in data set [5] (Homo sapiens), 1.4 nM; in [6] (Homo sapiens, NCI-H460), 3.4 nM. For the same molecule, the IC50 in data set [7] (Homo sapiens) was found to be 1 nM; in data set [8] (Homo sapiens, RPMI-8226) it was 0.4 nM. Also, the IC90 in data set [1] (Homo sapiens, HT-29) is 1.9 nM; in data set [2] (Homo sapiens, MDA-MB-231) it was 1 nM; in [3] (Homo sapiens, KB 3-1), 6 nM; in [4] (Homo sapiens, HCT-116), 4.4 nM; in data set [5] (Homo sapiens), 6.9 nM; in data set [6] (Homo sapiens, NCI-H460) it was 11 nM. The IC90 in data set [7] (Homo sapiens) amounted to 4 nM; in data set [8] (Homo sapiens, RPMI-8226), 1.5 nM.
`COc1cccc2c1C(=O)c1c(O)c3c(c(O)c1C2=O)C[C@@](O)(C(=O)CO)C[C@@H]3O[C@H]1C[C@H](N)[C@H](O)[C@H](C)O1` [Doxorubicin, reference compound]: the toxic deaths result in [9] (both dosages, 2.5 and 3 mg/kg/day IP) is “there were toxic deaths”.
`COc1cc2c(=O)n(CCN3CCCC3)c3c4cc5c(cc4nnc3c2cc1OC)OCO5` [Example 5, 2,3-Dimethoxy-8,9-methylenedioxy-11-[2-(pyrrolidin-1-yl)ethyl]-11H-5,6,11-triaza-chrysen-12-one]: the melting point (commonly the temperature of the solid-liquid transition) turned out to be 229 °C.
Still for that read-out and setting: the value for `COc1cc2c(=O)n(CCN3CCCCC3)c3c4cc5c(cc4nnc3c2cc1OC)OCO5` [Example 6, 2,3-Dimethoxy-8,9-methylenedioxy-11-[2-(piperidin-1-yl)ethyl]-11H-5,6,11-triaza-chrysen-12-one] was 294 to 295 °C.
In the case of `COc1cc2c(=O)n(C(C)CN(C)C)c3c4cc5c(cc4ncc3c2cc1OC)OCO5` (stereo not shown) [Example 8, 8,9-Dimethoxy-2,3-methylenedioxy-5-[2-(N,N-dimethylamino)-1-methylethyl]-5H-dibenzo[c,h]1,6-naphthyridin-6-one], the melting point is 186 to 187 °C.
The same measure, in the same setting: under `COc1cc2c(=O)n(CCN3CCCC3)c3c4cc5c(cc4ncc3c2cc1OC)OCO5` [Example 9, 8,9-Dimethoxy-2,3-methylenedioxy-5-[2-(pyrrolidin-1-yl)ethyl]-5H-dibenzo[c,h]1,6-naphthyridin-6-one] stands 255 to 257 °C (dec.); under `COc1cc2c(=O)n(CCCN(C)C)c3c4cc5c(cc4ncc3c2cc1OC)OCO5` [Example 11, 8,9-Dimethoxy-2,3-methylenedioxy-5-[3-(N,N-dimethylamino)propyl]-5H-dibenzo[c,h]1,6-naphthyridin-6-one], 262 to 264 °C (dec.); under `COc1cc2c(=O)n(CCO)c3c4cc5c(cc4ncc3c2cc1OC)OCO5` [Example 13, 8,9-Dimethoxy-2,3-methylenedioxy-5-[2-(hydroxy)ethyl]-5H-dibenzo[c,h]1,6-naphthyridin-6-one], 285 to 286 °C.
Same read-out and setting: the value for `COc1cc2c(=O)n(CCOCCO)c3c4cc5c(cc4ncc3c2cc1OC)OCO5` [Example 14, 8,9-Dimethoxy-2,3-methylenedioxy-5-[2-(2-hydroxyethoxy)ethyl]-5H-dibenzo[c,h]1,6-naphthyridin-6-one] was 235 °C.
As for `O=C(O)C(=O)O.[NH-][C@@H]1CCCC[C@H]1[NH-].[Pt+2]` [Oxaliplatin, reference compound], in data set [9] (5 and 6.5 mg/kg/day IP), the “delay in tumor growth” value was determined as 13 days and the tolerability entry is “well tolerated”. The “TGI (T/C)” value in [9] (both dosages, 5 and 6.5 mg/kg/day IP) is reported as 45.1-47.6%.
As to `Nc1nc2[nH]cc(CCc3ccc(C(=O)N[C@@H](CCC(=O)O)C(=O)O)cc3)c2c(=O)[nH]1` [Pemetrexed, reference compound], in [10] (100 and 150 mg/kg/day IP), the antitumor activity result is listed as “not considered active” and the body weight loss was no more than 20%.
For `CCc1c2c(nc3ccc(O)cc13)-c1cc3c(c(=O)n1C2)COC(=O)[C@]3(O)CC` [SN-38, 7-ethyl-10-hydroxyl-camptothecin, reference compound], the IC50 came out at 0.5 nM in data set [1]; 0.7 nM in [2]; 6.1 nM in data set [3]; 2.7 nM in data set [4]; 15 nM in data set [5]; 4.7 nM in [6]. The IC50 in data set [7] worked out at 5.3 nM; in data set [8], 0.9 nM. Moreover, the IC90 in data set [1] amounted to 1.8 nM; in data set [2], 2 nM; in data set [3], 18.8 nM; in data set [4] it was 8.4 nM; in data set [5] it was 55 nM; in data set [6], 13.3 nM. Moreover, the IC90 in data set [7] turned out to be 19.1 nM; in data set [8], 3 nM.
Turning to `CC[C@@]1(O)C(=O)OCc2c1cc1n(c2=O)Cc2cc3c(CN(C)C)c(O)ccc3nc2-1` [Topotecan, reference compound], the IC50 came out at 2.9 nM in data set [1] (Homo sapiens, HT-29); 5.6 nM in data set [2] (Homo sapiens, MDA-MB-231); 32 nM in data set [3] (Homo sapiens, KB 3-1); 8.5 nM in data set [4] (Homo sapiens, HCT-116); 75 nM in data set [5] (Homo sapiens); 18.2 nM in [6] (Homo sapiens, NCI-H460). Also, the IC50 in data set [7] (Homo sapiens) turned out to be 32.7 nM; in [8] (Homo sapiens, RPMI-8226), 12.7 nM. Also, the IC90 in data set [1] (Homo sapiens, HT-29) stood at 11.2 nM; in data set [2] (Homo sapiens, MDA-MB-231) it was 19.5 nM; in [3] (Homo sapiens, KB 3-1) it was 115 nM; in data set [4] (Homo sapiens, HCT-116), 26.3 nM; in data set [5] (Homo sapiens) it was 257 nM; in data set [6] (Homo sapiens, NCI-H460), 52.5 nM. The IC90 in data set [7] (Homo sapiens) worked out at 107 nM; in [8] (Homo sapiens, RPMI-8226), 43.2 nM. Moreover, the body weight loss in data set [10] (2 and 2.5 mg/kg/day IP) is on record as greater than 30%.
